From US20130217871A1, “CONJUGATES COMPRISING HYDROXYALKYL STARCH AND A CYTOTOXIC AGENT AND PROCESS FOR THEIR PREPARATION” (priority 2010, published 2013)
Marks after values point to notes of the source that are not given here.

What was measured:
[1] = tested on: human large cell lung carcinoma LXFL-529; experiment: Tumor growth inhibition, s.c. LXFL-529 xenograft in nude mice; format: in vivo, NMRI nu/nu mice; conditions: Table 14; for Tumor volume mm^3 (d 14): day 14; for RTV T/C optimum [%]: optimum day in cell
Text: Mouse strain: NMRI nu/nu, female Animals supplied by: Charles River, Germany Age of mice at implantation: 5-7 weeks
The tumor xenografts LXFL-529 (Fiebig H H, Berger D P, Dengler W A, Wallbrecher E, Winterhalter B R: Combined In Vitro/In Vivo Test Procedure with Human Tumor Xenografts for New Drug Development. Contrib. Oncol., Basel, Karger, 1992, Vol. 42, pp 321-351) used in this study were derived from surgical specimen from patients treated at the University Hospital in Freiburg, Germany, and directly implanted into nude mice. Prior to surgery, most of the patients had not received any chemotherapy.
Tumor fragments were obtained from xenografts in serial passage in nude mice. After removal from donor mice, tumors were cut into fragments (4-5 mm diameter) and placed in PBS until subcutaneous implantation. Recipient mice were anaesthetized by inhalation of isoflurane. A small incision was made in the back and one tumor fragment per animal was transplanted with tweezers. The mice were monitored daily.
At randomization, tumor-bearing animals were stratified according to tumor volume into treatment and vehicle (control) groups. Only animals carrying one tumor of appropriate size (approximately 50-250 mm^3) were considered for randomization. Mice were randomized when the required number of mice qualified for randomization. The day of randomization was designated as day 0, which was also the first day of dosing.
(§1) All test items were formulated in 0.9% NaCl solution and given as i.v. bolus injection despite everolimus, which was given per oral.
(§2) Measurement of tumor volume and body weight as well as calculations of relative tumor volumes were carries out analogue to the procedure described in 1.3.

[2] = Toxicity in LXFL-529 tumor-bearing nude mice (mortality, body weight change); format: in vivo; conditions: Table 14; days 0, 3, 7, 10 (20 mg/kg); 5 mice; at day 13
Procedure: All experiments were conducted according to the guidelines of the German Animal Welfare Act (Tierschutzgesetz). Animal health was examined prior to tumor implantation and randomization to ensure that only animals without any symptoms of disease were selected to enter testing procedures. During the experiments, animals were monitored daily regarding tumor burden, general condition, feed and water supply.
as §1, §2

[3] = tested on: human pancreas carcinoma ASPC-1; experiment: Tumor growth inhibition, s.c. ASPC-1 xenograft in nude mice; format: in vivo, NMRI:nu/nu mice; conditions: 60 mg/kg/inj. i.v.
Text: The human pancreas carcinoma ASPC-1 was used as s.c. xenotransplantation model in immunodeficient female NMRI:nu/nu mice.
The cells were obtained from ATCC and are cryo-preserved within the EPO tumor bank. They were thawed, expanded in vitro and transplanted as cell suspension subcutaneously (s.c.) in female NMRI:nu/nu mice. The tumor line ASPC-1 is used for testing new anticancer drugs or novel therapeutic strategies. It was therefore selected for this study.
For experimental use 10^7 tumor cells/mouse from the in vitro passage were transplanted s.c. into the flank of each of 10 mice/group at day 0.
(§3) At palpable tumor size (30-100 mm^3) treatment started. The application volume was 0.2 ml/20 g mouse body weight. The test compounds, the vehicle controls and the reference compounds were all given intravenously (i.v.).
(§4) Tumor growth inhibition was used as therapeutic parameter. Additionally, body weight change was determined as signs for toxicity (particularly, potential hematological or gastrointestinal side effects).
Tumor diameters were measured twice weekly with a caliper. Tumor volumes were calculated according to V=(length x (width)^2)/2. For calculation of the relative tumor volume (RTV) the tumor volumes at each measurement day were related to the day of first treatment. At each measurement day the median and mean tumor volumes per group and also the treated to control (T/C) values in percent were calculated (Tables 11-13).
Descriptive statistics were performed on the data of body weight and tumor volume. […] Statistical evaluation was performed with the U-test of Mann and Whitney with a significance level of p≦0.05, using the Windows program […] 6.
All Gemcitabine-conjugates were stored in a freeze-dried form at −20° C. until use. Solutions were prepared immediately before injection by solving the conjugates in saline solution by vortexing in combination with centrifugation until a clear solution of the necessary concentration of the drug was obtained.
Gemcitabine (Gemzar®, charge A4781790 200 mg) was obtained from Lilly Deutschland GmbH and was stored in the dark at −20° C. until use. The final solution of Gemzar® was prepared immediately before injection by mixing the appropriate volume of the original stock solution (200 mg) with saline (0.9%, infusion solution, Ch.-Nr 0205A231, B. Braun Melsungen AG, Germany).

[4] = Toxicity in ASPC-1 tumor-bearing nude mice (body weight change, toxic death, blood counts); format: in vivo, NMRI:nu/nu mice
Procedure: as §3, §4
Individual body weights of mice were determined twice weekly and mean body weight per group was related to the initial value in percent (body weight change, BWC).
On the day of necropsy mice were sacrificed by cervical dislocation and inspected for gross organ changes.

[5] = days 0, 3 (10 mg/kg), 7, 10, 14 (15 mg/kg) p.o.
[6] = days 0, 3, 7, 10 (20 mg/kg) i.v.
[7] = Table 13, days 7, 14, 21, day 27

## CO[C@H]1C[C@@H]2CC[C@@H](C)[C@@](O)(O2)C(=O)C(=O)N2CCCC[C@H]2C(=O)O[C@H]([C@H](C)C[C@@H]2CC[C@@H](OCCO)[C@H](OC)C2)CC(=O)[C@H](C)/C=C(\C)[C@@H](O)[C@@H](OC)C(=O)[C@H](C)C[C@H](C)/C=C/C=C/C=C/1C [Everolimus]
[1]; [5]
  Tumor volume mm^3 (d 14): 926.1 mm^3
  RTV T/C optimum [%]: 53.9 (d 14) %

## CO[C@H]1C[C@@H]2CC[C@@H](C)[C@@](O)(O2)C(=O)C(=O)N2CCCC[C@H]2C(=O)O[C@H]([C@H](C)C[C@@H]2CC[C@@H](OC(=O)C(C)(CO)CO)[C@H](OC)C2)CC(=O)[C@H](C)/C=C(\C)[C@@H](O)[C@@H](OC)C(=O)[C@H](C)C[C@H](C)/C=C/C=C/C=C/1C [Temsirolimus]
[1]; [6]
  Tumor volume mm^3 (d 14): 1073.7 mm^3
  RTV T/C optimum [%]: 57.1 (d 10) %
[2]
  Mortality (at day): 1 (13)

## Nc1ccn([C@@H]2O[C@H](CO)[C@@H](O)C2(F)F)c(=O)n1 [Gemcitabine]
[3]; Table 11, 9 injections, optimum at day 36
  RTV T/C (%) Optimum (at day): 41.4%
[3]; Table 11, days 9, 13, 16, 20, 23, 27, 30, 34, 40, day 44
  Tumor volume cm^3/d 44: 0.272 +/− 0.119* cm^3
[3]; Table 12, day 28
  Tumor volume cm^3/d 28: 0.159 +/− 0.058* cm^3
[3]; Table 12, optimum at day 28
  RTV T/C (%) Optimum (at day): 23.6%
[3]; [7]
  RTV T/C (%) d 27: 55.1%
  Tumor volume cm^3/d 27: 0.480 +/− 0.317 cm^3
[4]; Table 11, 60 mg/kg/inj. i.v., day 13
  Platelets × 10^6/ml (at day 13): 915 +/− 105* × 10^6/ml
[4]; Table 11, white blood cell count, 60 mg/kg/inj. i.v., day 13
  WBC × 10^6/ml (at day 13): 5.22 +/− 1.47* × 10^6/ml
[4]; Table 12, 60 mg/kg/inj. i.v., 8 treatments, 8 mice, deaths at d 15, d 18
  Toxic death (at day): 2
[4]; Table 12, body weight change, 60 mg/kg/inj. i.v., at day 17
  BWC [%] (at day): −15%
[4]; mouse, in vivo, iv, 60 mg/kg
  BWC [%] (at day): −2.4 (9) %
